Columns and labels:
AMPA receptor = experiment: Spreading depression (SD) test in the chicken retina, in vitro; type: cell-based; details: antagonism of SD latency generated by 5 μM S-AMPA, isolated chicken retina, 30-minute incubation, room temperature; average ± deviation of the average
Protocol: The test was carried out according to method of Sheardown (1993).
Isolated eye-cups of 5-7 days old chickens (Shaver red-brow) were used. The sexes of the chickens were unidentified. Eyes of the animals were enucleated in narcosis caused by etherization, then the back sides of the eyes were cut and put in nutrient solution.
The composition of the medium is 100 mM NaCl, 3 mM KCl, 1 mM MgSO4, 1 mM CaCl2, 30 mM NaHCO3, 1 mM NaH2PO4 10 mM D-glukose, pH=7.3.
The spreading depression (SD) latency generated by 5 μM S-AMPA is determined at room temperature followed by a 90-minute stabilisation period. This value was considered as control value. Then the latency caused by AMPA was measured following a 30-minute incubation period in the presence of the test compound, then followed by further 60 minutes washing the recursion of the latency time to the control value was checked.
The elongation of the control latency with 30 sec corresponds to 100% antagonism. • Literature: Sheardown, M. J.: The triggering of spreading depression in the chicken retina: a pharmacological study. Brain Research 1993, 607: 189-194.

female Wistar rats = experiment: Toxicity test in rats: histological atrophy of thymus and bone-marrow after seven-day p.o. treatment; type: in vivo, rat; details: for thymus cortex atrophy (scores): female Wistar rats, 30 mg/kg p.o. once daily for seven days, score 0 (no change) to 4 (severe), average ± deviation of the average; for bone-marrow atrophy (scores): female, Wistar, po, 30 mg/kg, 7 days; for bone-marrow atrophy (scores) / effect on the hystological pictures of the thymus and bone-marrow (in words): rat, in vivo
Protocol: The examination was carried out using female Wistar rats. One day before the treatment the animals were assigned to randomised groups based on their weight (10 animals/group). Each active ingredient was suspended in a solution of 0.4% hydroxypropylmethylcellulose (Methocell F4 M, Dow Chemical Company, USA) and administered once daily for seven days by gastric-canule. The daily doses were 30 mg/kg, the animals of the control group were treated with the solvent. At the end of the experiments the animals were sacrificed by incising of the arteries of thigh in narcosis caused by ether.
After the thymus-ectomy thymi were fixed in a solution of formaline buffered with phosphate, then embedded in paraffin, pigmented with hemalaun-eosin.
Bone-marrow film preparations were made from the femur of the animals and pigmented according to Grimsa method (Sheenan D. C.-Hrapchak B. B.: Theory and practice of histotechnology (2nd ed.) Mosby Company, St. Louis, USA 1980).
The histological athrophy was scored as follows: 0—there is no change, 1—change appears, 2—slight change, 3—middle severe change, marked change, 4—severe, obvious, wide change. The rating was accomplished blind without any information about the treatment.
Groups were compared by KRUSKAL WALLIS ANOVA test (Ranks and Median). In case of significant deviation (p<0.05) WALD-WOLFOWITZ test was used for comparison.

male Wistar rats = experiment: Measurement of plasma corticosterone concentration in the rat (radio-immunoassay); type: in vivo; details: treatment per os, 15 mg/kg
Protocol: Examinations were carried out by using male wistar rats weighing 250-300 g. The animals were kept in an air-conditioned room, 12 hours artificial daylight was followed by 12 hours darkness. For four days prior to the experiments the animals got 0.5 ml water daily by a gastric-canule. The weight of the animals was measured at the evening before the experiments, then the animals were placed in separate cages.
Experiments were accomplished in the morning between 9 and 12 hours.
Before the treatment the animals were randomized to groups (7 animals/group)
The tested compounds were administered in a 15 mg/body weight kg dose, in 5 ml/kg solvent volume, using gastric-canule. The control animals were treated with solvent. The solvent composition contained 0.2 ml of 2.5 M HCl and 19.8 ml of distilled water.
After one hour of the treatment the animals were decapitated and about 2 ml of blood were collected in an ice-cold test tube containing 100 μl of 2% (WN) K-EDTA.
For the determination of corticosterone concentration, a corticosterone-3-CMO-BSA anti-body prepared in rabbit was used in a dilution of 1:40000. The antibody cross-reaction with desoxycorticosteron was 1.5%; with progesterone it was 2.3%. […]
The corticosterone concentration was measured from 10 μl plasma without extraction. […] The radioactivity was measured with LKB Clinigamma apparatus. […]

Row | Compound | EC50 (AMPA receptor) | thymus cortex atrophy (scores) (female Wistar rats) | bone-marrow atrophy (scores) (female Wistar rats) | effect on the hystological pictures of the thymus and bone-marrow (in words) (female Wistar rats) | effect on the plasma corticosterone concentration (in words) (male Wistar rats)
1 | CC(=O)N1N=C(c2ccc(N)c(C)c2)c2cc3c(cc2C[C@H]1C)OCO3 [Example 4, (R)-(−)-7-acetyl-5-(4-amino-3-methylphenyl)-8-methyl-8,9-dihydro-7H-1,3-dioxolo[4,5-h][2,3] benzodiazepine] | 1800 ± 100 nM | 0.30 ± 0.21 scores | 0.40 ± 0.27 scores | only in a minimal degree | –
2 | CC(=O)N1N=C(c2ccc(N)c(C)c2)c2cc3c(cc2C[C@@H]1C)OCO3 [Example 6, (S)-(+)-7-Acetyl-5-(4-amino-3-methylphenyl)-8-methyl-8,9-dihydro-7H-1,3-dioxolo[4,5-h][2,3] benzodiazepine] | – | 2.9 ± 0.43 scores | 2.1 ± 0.31 scores | caused significant hystological atrophy in the thymus and the bone-marrow | –
3 | CC(=O)N1N=C(c2ccc(N)c(C)c2)c2cc(Cl)ccc2C[C@H]1C [Example 15, (R)-(−)-3-acetyl-1-(4-amino-3-methylphenyl)-8-chloro-4-methyl-4,5-dihydro-3H-2,3-benzodiazepine] | 3900 ± 200 nM | – | – | – | did not affect the plasma corticosterone concentration
4 | CC(=O)N1N=C(c2ccc(N)c(C)c2)c2cc(Cl)ccc2C[C@@H]1C [Example 16, (S)-(+)-3-acetyl-1-(4-amino-3-methylphenyl)-8-chloro-4-methyl-4,5-dihydro-3H-2,3-benzodiazepine] | – | – | – | – | elevated the plasma corticosterone concentration

Source: patent publication US20090233913A1, “OPTICAL ISOMERS OF DIHYDRO-2,3-BENZODIAZEPINES AND THEIR STEREOSELECTIVE SYNTHESIS” (priority 2005, published 2009)
